Like-named read-outs stand apart in the source and are kept apart here.

One series concerns hind paws of male rats. Briefly: Anti-inflammatory effect: acute carragheenin edema method. The class given is in vivo. To be noted: for inhibition in vivo at 100 mg/kg: read-out: Anti-inf.: edema inhibition rate; for anti-inflammatory effect, inhibition rate (ED50), in words: rat, in vivo. As for the experimental part: The edema was induced by subcutaneous injection of 1% carragheenin suspension in saline to the hind paws of male rats weighting 150 to 180 g. Each sample was orally given at the dosage of 100 mg/kg just before the inoculation of carragheenin.

The test system of series [1] is male mice. Briefly: Analgesic effect: painful stretchings following intraperitoneal 0.7% acetic acid. Conditions: Mus musculus, po, read-out: Analgesic: percentage diminition of times of painful stretching.
Experimental: Each sample was orally administered in the dosage of 100 mg/kg before injection of acetic acid.
The test system of the next series is thrombus. Briefly: Inhibiting effect on thrombosis (by-pass between left juglar vein and right carotid artery, silk thread). The class given is in vivo, SD type male rates. To be noted: Rattus norvegicus, read-out: Thrombosis inh.: thrombosis inhibition rate. The procedure, abridged:
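Arteriovenous shunt with silk thread and heparin saline, run as three successive 15-min circulations, with thrombus wet weight measured on the thread each time. Compound given orally in carboxymethyl cellulose suspension at 100 mg/kg 5 h before the first circulation. Inhibition rate derived against control circulations.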

A further series is described as follows: in vivo. To be noted: mouse, in vivo, po. As for the experimental part:
(§1) Each sample was dissolved in olive oil or dispersed in 1% Tween 20 aqueous solution.

A further series deals with platelet. Briefly: Blood platelet aggregation inhibiting effect (collagen-induced). The series is classed as cell-based, rabbits. Conditions: Oryctolagus cuniculus, Platelet; 10^-4 mole, collagen inducer, rabbit PRP; read-out: Blood platelet agg. inh.: percentage inhibition of platelet aggregation. The text has this: Male rabbits (Japan original white strain 3.3 to 3.6 kg) were anesthetized with Thiopental sodium and blood was sampled from the carotid artery.

For series [2], the system named is male mice. Briefly: in vivo. Conditions: oral, male mice, within 72 hours (Table 2). How it is done:
as §1

The nature of series [3]: Chronic inflammation (adjuvant-induced arthritis): body weight gain. The series is classed as in vivo, female rats of Sprague Drawley strain. How it is done:
(§2) The effects of 1 4-n-butyl benzophenone and 2 4-n-butyl-2'-fluorobenzophenone against adjuvant-induced arthritis were studied.
(§3) For the study, adult female rats of Sprague Drawley strain weighing approximately 200 g were used. All rats received 0.1 ml of a suspension of dry heat-killed tubercle bacilli (human strains, commercial product of Difco Co.) in liquid paraffin (5 mg/ml, w/v) by a single intradermal injection into the tail.
The treatment of the animals by the test compounds were started fourteen days after injection of the adjuvant when arthritis developed sufficiently accompanying edema and erythema in paws. […] […] Phenylbutazone was used as the reference drug.
(§4) Evaluations were made using the following parameters.

In series [4] the test system is adjuvant-induced arthritis. Briefly: Chronic inflammation (adjuvant-induced arthritis): reduction in edema of the hind paws. The series is classed as in vivo, female rats of Sprague Drawley strain. How it is done:
as §2, §3
The treatment of the animals by the test compounds were started fourteen days after injection of the adjuvant when arthritis developed sufficiently accompanying edema and erythema in paws. Each compound was orally given to animals daily for ten days. […] Phenylbutazone was used as the reference drug.
as §4
(2) Relative reduction in edema of the hind paws.

Where [5] appears, read: Rattus norvegicus, 100 mg/kg oral, carragheenin edema, male rats (Table 2).
Setting [6] is: 100 mg/kg oral, 5 hours before first blood circulation, rats.

A word on the LD50: it is the dose at which mortality reaches 50%. In general, inhibition refers to the share of the control response that was lost under treatment. On to `CCCCCCc1ccc(C(=O)c2ccc(CCC)cc2)cc1` [Active ingredient No. 6], for which the inhibition in vivo at 100 mg/kg in the series with hind paws of male rats (setting [5]) was found to be 44.2%; with male mice [1], 14.5%; in the series with thrombus (setting [6]), 15.9%. In addition, the LD50 at 72 h in the series “in vivo” came to 5000 mg/kg. The inhibition at 100 µM in the series with platelet came to 17.8%.
In the case of `COc1ccc(C(=O)c2ccccc2)cc1` [compound 28], the inhibition in vivo at 100 mg/kg in the series on hind paws of male rats (Rattus norvegicus, po) amounted to 44.1%; in the series on male mice [1] it was 4.2%; in the series with thrombus (po, 5 h) it was 7.3%. In addition, the “Acute toxicity LD50” value in the series with male mice [2] is listed as > 10000 mg/kg. For the same molecule, the inhibition at 100 µM with platelet was found to be 20.4%.
Regarding `CCCCC1C(=O)N(c2ccccc2)N(c2ccccc2)C1=O` [Phenylbutazone, reference compound], in series [3] (50 mg/kg/day oral), the “Body weight gain, average, 0 days” value turned out to be 215.6; the “Body weight gain, average, 6 days” value turned out to be 207.7; the “Body weight gain, average, 10 days” value is recorded as 214.3. In series [4] (50 mg/kg/day oral), the “Relative volume ratio of swelling in hind paws, average, 6 days” value (shortened to “Relative volume ratio of swelling … 6 days”) came out at 0.75 and the “Relative volume ratio of swelling in hind paws, average, 10 days” value (from here on “Relative volume ratio of swelling … 10 days”) is listed as 0.75.
For the molecule `CCCCCCc1ccc(C(=O)c2ccc(CCCC)cc2)cc1` [Active ingredient No. 5], the inhibition in vivo at 100 mg/kg in the series with hind paws of male rats (setting [5]) came out at 46.3%; in the series with male mice [1] it was 12.1%; with thrombus (setting [6]), 20.3%. The LD50 at 72 h in “in vivo” was 5000 mg/kg. Besides, the inhibition at 100 µM in the series on platelet stood at 15.3%.
Regarding `CCCCc1ccc(C(=O)c2ccccc2)cc1` [Active ingredient No. 19, 4-n-butyl benzophenone], the “anti-inflammatory effect, inhibition rate (ED50), in words” value in the series on hind paws of male rats is listed as “especially high inhibition rate (ED50)”. In series [3] (100 mg/kg/day oral), the “Body weight gain, average, 0 days” value is given as 229.2; the “Body weight gain, average, 6 days” value was 217.5; the “Body weight gain, average, 10 days” value stood at 218.2. Besides, in series [3] (200 mg/kg/day oral), the “Body weight gain, average, 0 days” value is 214.1; the “Body weight gain, average, 6 days” value was 213.3; the “Body weight gain, average, 10 days” value was 220.1. In series [4] (100 mg/kg/day oral), the “Relative volume ratio of swelling … 6 days” value was 0.97 and the “Relative volume ratio of swelling … 10 days” value was found to be 1.02. In series [4] (200 mg/kg/day oral), the “Relative volume ratio of swelling … 6 days” value was 0.76 and the “Relative volume ratio of swelling … 10 days” value came out at 0.75.
A word on the ED50: it is the dose that gives a 50% effect, or the effect in half of the subjects. With `Cc1cc(C)c(C(=O)c2ccccc2C)c(C)c1` [Active ingredient No. 3], the inhibition in vivo at 100 mg/kg in the series on hind paws of male rats (setting [5]) stood at 40%; in the series on male mice [1] it was 11.3%; in the series on thrombus (setting [6]) it was 38.3%. Besides, the 50% effective dose (ED50) in the series with hind paws of male rats (Rattus norvegicus, oral, carragheenin edema, male rats (Table 2), read-out: 50% inhibition ED50 (values in brackets)) worked out at 290 mg/kg. The LD50 at 72 h in the series “in vivo” was 1500 mg/kg. The inhibition at 100 µM in the series on platelet is 17.3%.
As for `CCCCc1ccc(C(=O)c2ccccc2F)cc1` [Active ingredient No. 8, 4-n-butyl-2'-fluorobenzophenone], in the series on hind paws of male rats, the “anti-inflammatory effect, inhibition rate (ED50), in words” value is listed as “especially high inhibition rate (ED50)”. Further, in series [3] (50 mg/kg/day oral), the “Body weight gain, average, 0 days” value is recorded as 222.6; the “Body weight gain, average, 6 days” value came out at 223.0; the “Body weight gain, average, 10 days” value was determined as 232.0. For the same molecule, in series [3] (100 mg/kg/day oral), the “Body weight gain, average, 0 days” value turned out to be 211.8; the “Body weight gain, average, 6 days” value is given as 205.8; the “Body weight gain, average, 10 days” value stood at 214.4. Also, in series [4] (50 mg/kg/day oral), the “Relative volume ratio of swelling … 6 days” value is on record as 0.74 and the “Relative volume ratio of swelling … 10 days” value is on record as 0.76. Besides, in series [4] (100 mg/kg/day oral), the “Relative volume ratio of swelling … 6 days” value came out at 0.78 and the “Relative volume ratio of swelling … 10 days” value is 0.73.

The values above are taken from patent publication US4145444A, “Anti-inflammatory agent of benzoyl derivative” (priority 1977, dated 1979).
